Laboratory results reported in US5229410A, “6-substituted-hexahydrobenz[cd]indoles” (Eli Lilly and Company, priority 1991, dated 1993).

Molecular target: T1, serotonin 1A receptor (Rattus norvegicus, UniProt P19327)
T1 construct: from tissue; host or cells: cerebral cortex of male Sprague-Dawley rats (synaptosomal membranes)
T1 sequence (P19327 1-422): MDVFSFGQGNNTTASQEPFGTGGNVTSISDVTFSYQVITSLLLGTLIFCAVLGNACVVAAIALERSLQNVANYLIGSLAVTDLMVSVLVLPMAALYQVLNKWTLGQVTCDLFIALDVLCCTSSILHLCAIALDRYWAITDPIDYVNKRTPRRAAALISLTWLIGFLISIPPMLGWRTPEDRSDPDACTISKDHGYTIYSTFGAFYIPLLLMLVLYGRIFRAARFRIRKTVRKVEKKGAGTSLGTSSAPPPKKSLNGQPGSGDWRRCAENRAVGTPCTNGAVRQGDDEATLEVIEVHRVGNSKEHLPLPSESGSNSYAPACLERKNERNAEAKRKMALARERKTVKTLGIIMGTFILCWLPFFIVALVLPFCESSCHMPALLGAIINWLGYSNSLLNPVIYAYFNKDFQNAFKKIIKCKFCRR
Test: serotonin 1A receptor binding (3H-8-OH-DPAT, rat cerebral cortex synaptosomal membranes)
Design: species or system Male Sprague-Dawley rats
Conditions: 0.4 nM 3H-8-OH-DPAT, pH 7.4, 37° C., 10 min, read-out: IC50 (concentration necessary to inhibit the binding of 3H-8-OH-DPAT by 50%)
Procedure: The compound of Example 14 was evaluated for its ability to interact with serotonin 1A receptor using the following procedure which is generally set forth in Wong et al., J. Neural Transm., 71, 207-218 (1988). Male Sprague-Dawley rats (110-150 g) from Harlan Industries (Cumberland, Ill.) were fed a Purina Chow ad libitum for at least 3 days before being used in the studies. Rats were killed by decapitation. The brains were rapidly removed, and the cerebral cortices were dissected out at 4° C.
Brain tissues were homogenized in 0.32M sucrose. After centrifugation at 1000×g for 10 min and then at 17,000×g for 20 min, a crude synaptosomal fraction was sedimented. The pellet was suspended in 100 vol of 50 mM Tris-HCl, pH 7.4, incubated at 37° C. for 10 min, and centrifuged at 50,000×g for 10 min. The process was repeated and the final pellet was suspended in ice-chilled 50 mM Tris-HCl, pH 7.4. […]
Binding of (^3 H-8-OH-DPAT) was performed according to the previously described method [Wong et al., J. Neural Transm. […] Radioactivity was measured with a liquid scintillation spectrometer. […] Specific binding of ^3 H-8-OH-DPAT is defined as the difference of radioactivity bound in the absence and in the presence of 10 μM unlabeled 8-OH-DPAT. […]

C#Cc1ccc2c3c1C[C@H](N(CCC)CCC)C[C@@H]3CN2 [Example 14, (2aS,4R)-6-ethynyl-4-(di-n-propylamino)-1,2,2a,3,4,5-hexahydrobenz[cd]indole]
IC50: 0.5 nM
